Assay results: US20100137139A1, “HERBICIDE/SAFENER COMBINATION” (BAYER CROPSCIENCE AG, priority 2008, published 2010)
Where “and” joins values, the source holds several entries; their conditions need not be identical. Equal values may be shown once.

Tests used:
Assay type in all cases: in vivo
Conditions in all cases: no safener
Wheat (Triso) [1] = assay: Post-emergence herbicidal effect and safener effect on wheat, visual scoring in greenhouse
Procedure: (§1) Seeds or rhizome pieces of mono- and dicotyledonous harmful plants and of crop plants are planted in peat pots in sandy loam, covered with earth and grown in a greenhouse under good growth conditions. Alternatively to this, harmful plants occurring in the paddy rice cultivation are cultivated in pots in which water comes to 2 cm above the soil surface. 10 to 20 days after sowing, the test plants are treated in the one-to three-leaf stage. The herbicide/safener active ingredient combinations according to the invention, formulated as water-soluble powders or suspensions, and, in parallel experiments, the correspondingly formulated individual active ingredients are sprayed onto the green plant parts in various dosages using an application rate of 300 I of water/ha (converted) and, after the test plants have remained in the greenhouse under optimum growth conditions for 2-3 weeks, the effect of the preparations is scored visually in comparison with untreated controls. In the case of rice or in the case of harmful plants which occur in the rice cultivation, the active ingredients are also placed directly into the irrigation water (application analogous to the so-called granules application) or sprayed onto plants and into the irrigation water.

Wheat (Triso) [2] = assay: Pre-emergence herbicidal effect and safener effect on wheat, visual scoring in greenhouse
Source text: (§2) Seeds or rhizome pieces of mono- and dicotyledonous weed plants and crop plants are planted in peat pots in sandy loam and covered with earth. The herbicide/safener active ingredient combinations according to the invention, formulated as water-soluble powders or suspensions, and, in parallel experiments, the correspondingly formulated individual active ingredients were then applied to the surface of the covering earth at an application rate of 600 to 800 I of water/ha (converted) in a variety of dosages.
(§3) After the treatment, the pots were placed in the greenhouse and kept under good growth conditions for the weeds and the crop plants. Visual scoring of the plant damage or emergence damage was carried out after the test plants had emerged after a test period of 2 to 4 weeks, in comparison with untreated controls.

Corn (Aventura) [3] = assay: Pre-emergence herbicidal effect and safener effect on corn, visual scoring in greenhouse
Source text: as §2, §3

Corn (Aventura) [4] = assay: Post-emergence herbicidal effect and safener effect on corn, visual scoring in greenhouse
Procedure: as §1

Rice (Ballila) = assay: Post-emergence herbicidal effect and safener effect on rice, visual scoring in greenhouse
Procedure: as §1

Row | Structure (SMILES) | % effect (without safener) (Wheat (Triso) [2]; herbicide 25 g a.i./ha) [%] | % effect (without safener) (Corn (Aventura) [3]; herbicide 50 g a.i./ha) | % effect (without safener) (Wheat (Triso) [1]; herbicide 25 g a.i./ha) [%] | % effect (without safener) (Corn (Aventura) [4]; herbicide 25 g a.i./ha) [%] | also measured
1 | Nc1nc(C2CC2)nc(C(=O)O)c1Cl [Compound I-1, 6-amino-5-chloro-2-cyclopropyl-4-pyrimidinecarboxylic acid] | 30 | – | – | – | % effect (without safener) (Wheat (Triso) [1]; herbicide 50 g a.i./ha): 20%; % effect (without safener) (Corn (Aventura) [3]; herbicide 100 g a.i./ha): 50%
2 | CCOC(=O)c1nc(C2CC2)nc(N)c1Cl [Compound I-3, ethyl 6-amino-5-chloro-2-cyclopropyl-4-pyrimidinecarboxylate] | – | 20% and 25% | – | – | % effect (without safener) (Corn (Aventura) [4]; herbicide 50 g a.i./ha): 60%; % effect (without safener) (Rice (Ballila); herbicide 25 g a.i./ha): 60%
3 | Nc1nc(-c2ccc(Cl)cc2)nc(C(=O)O)c1Cl [Compound I-109, 6-amino-5-chloro-2-(4-chlorophenyl)-4-pyrimidinecarboxylic acid] | 20 | – | 30 | 60 | % effect (without safener) (Corn (Aventura) [3]; herbicide 25 g a.i./ha): 20%
4 | Nc1nc(C2CC2)nc(C(=O)[O-])c1Cl.[K+] [Compound I-163, potassium salt of 6-amino-5-chloro-2-cyclopropyl-4-pyrimidinecarboxylic acid] | – | 50% | 10 | 20 | % effect (without safener) (Wheat (Triso) [2]; herbicide 50 g a.i./ha): 20%
5 | Nc1nc(C2CC2)nc(C(=O)[O-])c1Cl.[Na+] [Compound I-164, 6-amino-5-chloro-2-cyclopropyl-4-pyrimidinecarboxylic acid sodium salt] | 10 | – | 20 | – | % effect (without safener) (Rice (Ballila); herbicide 25 g a.i./ha, sodium salt): 10% and 20%; % effect (without safener) (Rice (Ballila); herbicide 50 g a.i./ha): 20%
